{"source": "ChEMBL document CHEMBL1201862", "about": "“PubChem BioAssay data set” (2004)", "experiment_in_all_cases": "NCI anticancer screen, dose series, 48 h", "key": {"[1]": {"test_system": "RPMI-8226"}, "[2]": {"test_system": "SF-268"}, "[3]": {"test_system": "SF-295"}, "[4]": {"test_system": "NCI-H460"}, "[5]": {"test_system": "SR"}, "[6]": {"test_system": "UO-31"}, "[7]": {"test_system": "SK-MEL-28"}, "[8]": {"test_system": "HCT-15"}, "[9]": {"test_system": "HT-29"}, "[10]": {"test_system": "OVCAR-3"}, "[11]": {"test_system": "M14"}, "[12]": {"test_system": "NCI-H522"}, "[13]": {"test_system": "SNB-75"}, "[14]": {"test_system": "Hs-578T"}, "[15]": {"test_system": "OVCAR-4"}, "[16]": {"test_system": "NCI-H226"}, "[17]": {"test_system": "Malme-3M"}, "[18]": {"test_system": "HOP-92"}, "[19]": {"test_system": "NCI-H23"}, "[20]": {"test_system": "SNB-19"}, "[21]": {"test_system": "ACHN"}, "[22]": {"test_system": "SN12C"}, "[23]": {"test_system": "HCC 2998"}, "[24]": {"test_system": "RXF 393"}, "[25]": {"test_system": "UACC-62"}, "[26]": {"test_system": "MDA-MB-231"}, "[27]": {"test_system": "MDA-N"}, "[28]": {"test_system": "HOP-62"}, "[29]": {"test_system": "786-0"}, "[30]": {"test_system": "SK-MEL-5"}, "[31]": {"test_system": "LOX IMVI"}, "[32]": {"test_system": "MDA-MB-435"}, "[33]": {"test_system": "SK-OV-3"}, "[34]": {"test_system": "NCI/ADR-RES"}, "[35]": {"test_system": "HCT-116"}, "[36]": {"test_system": "A498"}, "[37]": {"test_system": "DU-145"}, "[38]": {"test_system": "MCF7"}, "[39]": {"test_system": "PC-3"}, "[40]": {"test_system": "OVCAR-8"}, "[41]": {"test_system": "TK-10"}, "[42]": {"test_system": "A549"}, "[43]": {"test_system": "MOLT-4"}, "[44]": {"test_system": "COLO 205"}, "[45]": {"test_system": "KM12"}, "[46]": {"test_system": "SK-MEL-2"}, "[47]": {"test_system": "IGROV-1"}, "[48]": {"test_system": "SW-620"}, "[49]": {"test_system": "SF-539"}, "[50]": {"test_system": "T47D"}, "[51]": {"test_system": "UACC-257"}, "[52]": {"test_system": "U-251"}, "[53]": {"test_system": "EKVX"}, "[54]": {"test_system": "OVCAR-5"}, "[55]": {"test_system": "K562"}, "[56]": {"test_system": "CAKI-1"}, "[57]": {"test_system": "HL-60"}}, "note": "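Tested at 5 concentrations; 48 h exposure; 96-well plates; endpoints linearly interpolated, else capped at highest concentration. GI50 = concentration required for 50% inhibition of growth.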 Calls of active or inactive are those of the source. No stated cut-off is given here; in the data, active = GI50 up to about 1.1 µM and inactive = higher.", "data": [{"compound": "c1ccc(C(NC2=NCCO2)C2CC2)cc1", "note": "(stereo not given)", "values": [{"measurement": "GI50", "setting": "[1]", "result": "> 100 µM (inactive)"}, {"measurement": "GI50", "setting": "[2]", "result": "> 100 µM (inactive)"}, {"measurement": "GI50", "setting": "[3]", "result": "> 100 µM (inactive)"}, {"measurement": "GI50", "setting": "[4]", "result": "75.2 µM (inactive)"}, {"measurement": "GI50", "setting": "[5]", "result": "> 100 µM (inactive)"}, {"measurement": "GI50", "setting": "[6]", "result": "> 100 µM (inactive)"}, {"measurement": "GI50", "setting": "[7]", "result": "> 100 µM (inactive)"}, {"measurement": "GI50", "setting": "[8]", "result": "> 100", "unit": "µM"}, {"measurement": "GI50", "setting": "[9]", "result": "58.1 µM (inactive)"}, {"measurement": "GI50", "setting": "[10]", "result": "> 100 µM (inactive)"}, {"measurement": "GI50", "setting": "[11]", "result": "> 100 µM (inactive)"}, {"measurement": "GI50", "setting": "[12]", "result": "> 100 µM (inactive)"}, {"measurement": "GI50", "setting": "[13]", "result": "> 100 µM (inactive)"}, {"measurement": "GI50", "setting": "[14]", "result": "> 100 µM (inactive)"}, {"measurement": "GI50", "setting": "[15]", "result": "> 100 µM (inactive)"}, {"measurement": "GI50", "setting": "[16]", "result": "> 100 µM (inactive)"}, {"measurement": "GI50", "setting": "[17]", "result": "> 100 µM (inactive)"}, {"measurement": "GI50", "setting": "[18]", "result": "> 100 µM (inactive)"}, {"measurement": "GI50", "setting": "[19]", "result": "> 100 µM (inactive)"}, {"measurement": "GI50", "setting": "[20]", "result": "88.9 µM (inactive)"}, {"measurement": "GI50", "setting": "[21]", "result": "> 100 µM (inactive)"}, {"measurement": "GI50", "setting": "[22]", "result": "> 100 µM (inactive)"}, {"measurement": "GI50", "setting": "[23]", "result": "> 100 µM (inactive)"}, {"measurement": "GI50", "setting": "[24]", "result": "> 100 µM (inactive)"}, {"measurement": "GI50", "setting": "[25]", "result": "> 100 µM (inactive)"}, {"measurement": "GI50", "setting": "[26]", "result": "> 100 µM (inactive)"}, {"measurement": "GI50", "setting": "[27]", "result": "> 100 µM (inactive)"}, {"measurement": "GI50", "setting": "[28]", "result": "> 100 µM (inactive)"}, {"measurement": "GI50", "setting": "[29]", "result": "> 100 µM (inactive)"}, {"measurement": "GI50", "setting": "[30]", "result": "> 100 µM (inactive)"}, {"measurement": "GI50", "setting": "[31]", "result": "> 100 µM (inactive)"}, {"measurement": "GI50", "setting": "[32]", "result": "75.9 µM (inactive)"}, {"measurement": "GI50", "setting": "[33]", "result": "> 100 µM (inactive)"}, {"measurement": "GI50", "setting": "[34]", "result": "> 100 µM (inactive)"}, {"measurement": "GI50", "setting": "[35]", "result": "82.8 µM (inactive)"}, {"measurement": "GI50", "setting": "[36]", "result": "93.1 µM (inactive)"}, {"measurement": "GI50", "setting": "[37]", "result": "> 100 µM (inactive)"}, {"measurement": "GI50", "setting": "[38]", "result": "> 100 µM (inactive)"}, {"measurement": "GI50", "setting": "[39]", "result": "> 100 µM (inactive)"}, {"measurement": "GI50", "setting": "[40]", "result": "> 100 µM (inactive)"}, {"measurement": "GI50", "setting": "[41]", "result": "> 100 µM (inactive)"}, {"measurement": "GI50", "setting": "[42]", "result": "> 100 µM (inactive)"}, {"measurement": "GI50", "setting": "[43]", "result": "> 100 µM (inactive)"}, {"measurement": "GI50", "setting": "[44]", "result": "> 100 µM (inactive)"}, {"measurement": "GI50", "setting": "[45]", "result": "> 100 µM (inactive)"}, {"measurement": "GI50", "setting": "[46]", "result": "> 100 µM (inactive)"}, {"measurement": "GI50", "setting": "[47]", "result": "> 100 µM (inactive)"}, {"measurement": "GI50", "setting": "[48]", "result": "> 100 µM (inactive)"}, {"measurement": "GI50", "setting": "[49]", "result": "32.3 µM (inactive)"}, {"measurement": "GI50", "setting": "[50]", "result": "> 100 µM (inactive)"}, {"measurement": "GI50", "setting": "[51]", "result": "> 100 µM (inactive)"}, {"measurement": "GI50", "setting": "[52]", "result": "> 100 µM (inactive)"}, {"measurement": "GI50", "setting": "[53]", "result": "> 100 µM (inactive)"}, {"measurement": "GI50", "setting": "[54]", "result": "> 100 µM (inactive)"}]}, {"compound": "CC1(C)CS(=O)(=O)CC(C)(C)C(=N/N)/C1=N\\N", "values": [{"measurement": "GI50", "setting": "[2]", "result": "> 100 µM (inactive)"}, {"measurement": "GI50", "setting": "[3]", "result": "> 100 µM (inactive)"}, {"measurement": "GI50", "setting": "[4]", "result": "> 100 µM (inactive)"}, {"measurement": "GI50", "setting": "[5]", "result": "> 100 µM (inactive)"}, {"measurement": "GI50", "setting": "[7]", "result": "> 100 µM (inactive)"}, {"measurement": "GI50", "setting": "[8]", "result": "> 100", "unit": "µM"}, {"measurement": "GI50", "setting": "[9]", "result": "> 100 µM (inactive)"}, {"measurement": "GI50", "setting": "[55]", "result": "> 100 µM (inactive)"}, {"measurement": "GI50", "setting": "[10]", "result": "> 100 µM (inactive)"}, {"measurement": "GI50", "setting": "[11]", "result": "> 100 µM (inactive)"}, {"measurement": "GI50", "setting": "[12]", "result": "> 100 µM (inactive)"}, {"measurement": "GI50", "setting": "[13]", "result": "> 100 µM (inactive)"}, {"measurement": "GI50", "setting": "[14]", "result": "> 100 µM (inactive)"}, {"measurement": "GI50", "setting": "[15]", "result": "> 100 µM (inactive)"}, {"measurement": "GI50", "setting": "[17]", "result": "> 100 µM (inactive)"}, {"measurement": "GI50", "setting": "[18]", "result": "> 100 µM (inactive)"}, {"measurement": "GI50", "setting": "[19]", "result": "> 100 µM (inactive)"}, {"measurement": "GI50", "setting": "[20]", "result": "> 100 µM (inactive)"}, {"measurement": "GI50", "setting": "[21]", "result": "> 100 µM (inactive)"}, {"measurement": "GI50", "setting": "[22]", "result": "> 100 µM (inactive)"}, {"measurement": "GI50", "setting": "[23]", "result": "> 100 µM (inactive)"}, {"measurement": "GI50", "setting": "[25]", "result": "> 100 µM (inactive)"}, {"measurement": "GI50", "setting": "[56]", "result": "> 100 µM (inactive)"}, {"measurement": "GI50", "setting": "[27]", "result": "> 100 µM (inactive)"}, {"measurement": "GI50", "setting": "[28]", "result": "> 100 µM (inactive)"}, {"measurement": "GI50", "setting": "[29]", "result": "> 100 µM (inactive)"}, {"measurement": "GI50", "setting": "[30]", "result": "> 100 µM (inactive)"}, {"measurement": "GI50", "setting": "[31]", "result": "> 100 µM (inactive)"}, {"measurement": "GI50", "setting": "[32]", "result": "> 100 µM (inactive)"}, {"measurement": "GI50", "setting": "[33]", "result": "> 100 µM (inactive)"}, {"measurement": "GI50", "setting": "[34]", "result": "> 100 µM (inactive)"}, {"measurement": "GI50", "setting": "[35]", "result": "> 100 µM (inactive)"}, {"measurement": "GI50", "setting": "[36]", "result": "> 100 µM (inactive)"}, {"measurement": "GI50", "setting": "[37]", "result": "> 100 µM (inactive)"}, {"measurement": "GI50", "setting": "[38]", "result": "> 100 µM (inactive)"}, {"measurement": "GI50", "setting": "[39]", "result": "> 100 µM (inactive)"}, {"measurement": "GI50", "setting": "[40]", "result": "> 100 µM (inactive)"}, {"measurement": "GI50", "setting": "[41]", "result": "> 100 µM (inactive)"}, {"measurement": "GI50", "setting": "[57]", "result": "> 100 µM (inactive)"}, {"measurement": "GI50", "setting": "[42]", "result": "> 100 µM (inactive)"}, {"measurement": "GI50", "setting": "[44]", "result": "> 100 µM (inactive)"}, {"measurement": "GI50", "setting": "[45]", "result": "> 100 µM (inactive)"}, {"measurement": "GI50", "setting": "[46]", "result": "> 100 µM (inactive)"}, {"measurement": "GI50", "setting": "[47]", "result": "> 100 µM (inactive)"}, {"measurement": "GI50", "setting": "[48]", "result": "> 100 µM (inactive)"}, {"measurement": "GI50", "setting": "[49]", "result": "> 100 µM (inactive)"}, {"measurement": "GI50", "setting": "[50]", "result": "> 100 µM (inactive)"}, {"measurement": "GI50", "setting": "[51]", "result": "> 100 µM (inactive)"}, {"measurement": "GI50", "setting": "[52]", "result": "> 100 µM (inactive)"}, {"measurement": "GI50", "setting": "[53]", "result": "> 100 µM (inactive)"}, {"measurement": "GI50", "setting": "[54]", "result": "> 100 µM (inactive)"}]}]}
